Measurements from PMC7177849, “Gut Microbial Catabolites of Tryptophan Are Ligands and Agonists of the Aryl Hydrocarbon Receptor: A Detailed Characterization” (International Journal of Molecular Sciences, 2020).
Values joined by “and” are separate entries in the source; they are usually repeats but may differ in a detail not shown here. Equal values may be shown once. Read-outs that look alike come from different tables or passages of the source.

Assays:
Format in all cases: cell-based
[1] = molecular target: T1, AhR (Homo sapiens, UniProt P35869); test: Summary of AhR cell functions (translocation; heterodimerization; DNA-binding) in LS180 cells; set-up: 0.1% V/V), TCDD (10 nM), and test MICT; host or cells: LS180 cells; details: Table 1 summary class
T1 sequence (P35869 11-848): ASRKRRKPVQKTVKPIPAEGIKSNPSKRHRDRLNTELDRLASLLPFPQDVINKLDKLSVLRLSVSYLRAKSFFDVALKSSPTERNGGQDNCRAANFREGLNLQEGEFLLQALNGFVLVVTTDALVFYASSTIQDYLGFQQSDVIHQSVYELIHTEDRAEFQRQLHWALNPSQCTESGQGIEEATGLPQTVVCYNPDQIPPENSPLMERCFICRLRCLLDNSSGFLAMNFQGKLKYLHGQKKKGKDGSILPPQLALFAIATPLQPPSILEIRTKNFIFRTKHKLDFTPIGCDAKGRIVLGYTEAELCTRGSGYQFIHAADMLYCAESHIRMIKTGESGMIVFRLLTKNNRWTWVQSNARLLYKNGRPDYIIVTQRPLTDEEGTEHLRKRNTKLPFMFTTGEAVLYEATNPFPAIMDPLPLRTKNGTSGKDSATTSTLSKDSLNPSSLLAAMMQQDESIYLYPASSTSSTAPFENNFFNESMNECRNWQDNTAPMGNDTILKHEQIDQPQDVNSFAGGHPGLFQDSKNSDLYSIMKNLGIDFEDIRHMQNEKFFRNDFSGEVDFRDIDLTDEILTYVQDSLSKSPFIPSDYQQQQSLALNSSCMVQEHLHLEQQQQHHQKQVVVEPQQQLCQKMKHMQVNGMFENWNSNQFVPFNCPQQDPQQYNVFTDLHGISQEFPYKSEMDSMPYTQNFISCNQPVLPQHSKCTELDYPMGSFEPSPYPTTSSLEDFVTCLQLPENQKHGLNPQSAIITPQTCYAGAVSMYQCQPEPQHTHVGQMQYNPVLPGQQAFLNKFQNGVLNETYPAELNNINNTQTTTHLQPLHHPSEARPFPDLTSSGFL
Experimental: (§1) LS180 cells (60,000 cells/well) were plated on 8-well chambered slides (94.6140.802, Sarstedt, Nümbrecht, Germany) and allowed to grow overnight. Then, the cells were incubated with DMSO (0.1% V/V), TCDD (10 nM), IND (1000 µM), IPY (200 µM), 3MI (200 µM), TA (200 µM), IAC (100 µM), and IAD (200 µM). The staining procedure was described in detail elsewhere. The images were captured using an IX73 fluorescence microscope (Olympus, Tokyo, Japan). The immunofluorescence signal intensity (of the AhR antibody) in the nucleus was evaluated visually. For percentage calculation, approximately 500 cells from at least four randomly selected fields of view in each specimen were used.
LS180 cells (4 million) were seeded in a 60-mm dish in Dulbecco’s modified Eagle’s medium (D6546; Sigma Aldrich). The following day, the cells were incubated with DMSO (0.1% V/V), TCDD (10 nM), IND (1000 µM), IPY (200 µM), 3MI (200 µM), TA (200 µM), IAC (100 µM), and IAD (200 µM) for 90 min at 37 °C. ChIP assay was performed as we described in detail elsewhere.
(§2) Intestinal LS180 cells were incubated with TCDD, tested MICT, and vehicle (DMSO; 0.1% V/V) for 90 min at 37 °C. The Pierce™ Co-Immunoprecipitation Kit (Thermo Fisher Scientific) with covalently coupled AhR antibody (mouse monoclonal, sc-133088, A-3, Santa Cruz Biotechnology) was used. Eluted protein complexes and total parental lysates were resolved on SDS-PAGE gels followed by Western Blot analysis and immuno-detection with ARNT-1 antibody (mouse monoclonal, sc-17812, G-3, Santa Cruz Biotechnology). Chemiluminescent detection was performed using horseradish peroxidase-conjugated anti-mouse secondary antibody (7076S, Cell Signaling Technology) and WesternSure® PREMIUM Chemiluminescent Substrate (LI-COR Biotechnology) by C-DiGit® Blot Scanner (LI-COR Biotechnology).

[2] = molecular target: T1, AhR; test: Immunofluorescence detection of nuclear translocation of the AhR in LS180 cells; set-up: 0.1% V/V), TCDD (10 nM), and test MICT; host or cells: LS180 cells
Experimental: Figure 5 Effect of MICT on nuclear translocation of the AhR. LS180 cells were incubated for 90 min with vehicle (DMSO; 0.1% V/V), TCDD (10 nM), and test MICT. The experiments were performed in three consecutive cell passages with all tested compounds in duplication. Fluorescence images depict sub-cellular localization of AhR (upper panels) and nuclear staining by DAPI (lower panels). Representative micrographs are shown.
as §1
Suppl. Table 1. Nuclear translocation of AhR – quantification of immunofluorescence.
LS180 cells were incubated for 90 min with MICT , vehicle or TCDD. Intracellular AhR was visualized with Alexa Fluor 488 labelled primary antibody. The whole staining protocol was performed in three independent experiments in technical duplicates. The AhR translocation was evaluated visually depending on the distinct signal intensity of AhR antibody in the nucleus and cytosol. For percentage calculation, approximately one hundred cells from at least four randomly selected fields of view in each

[3] = molecular target: T2, AhR-ARNT heterodimer (Homo sapiens, UniProt P35869); test: Protein co-immunoprecipitation, formation of AhR-ARNT heterodimer in LS180 cells; details: 90 min
T2 construct: 0.1% V/V) for 90 min at 37 °C; host or cells: LS180 cells
T2 sequence (P27540 whole entry partner, one chain of several): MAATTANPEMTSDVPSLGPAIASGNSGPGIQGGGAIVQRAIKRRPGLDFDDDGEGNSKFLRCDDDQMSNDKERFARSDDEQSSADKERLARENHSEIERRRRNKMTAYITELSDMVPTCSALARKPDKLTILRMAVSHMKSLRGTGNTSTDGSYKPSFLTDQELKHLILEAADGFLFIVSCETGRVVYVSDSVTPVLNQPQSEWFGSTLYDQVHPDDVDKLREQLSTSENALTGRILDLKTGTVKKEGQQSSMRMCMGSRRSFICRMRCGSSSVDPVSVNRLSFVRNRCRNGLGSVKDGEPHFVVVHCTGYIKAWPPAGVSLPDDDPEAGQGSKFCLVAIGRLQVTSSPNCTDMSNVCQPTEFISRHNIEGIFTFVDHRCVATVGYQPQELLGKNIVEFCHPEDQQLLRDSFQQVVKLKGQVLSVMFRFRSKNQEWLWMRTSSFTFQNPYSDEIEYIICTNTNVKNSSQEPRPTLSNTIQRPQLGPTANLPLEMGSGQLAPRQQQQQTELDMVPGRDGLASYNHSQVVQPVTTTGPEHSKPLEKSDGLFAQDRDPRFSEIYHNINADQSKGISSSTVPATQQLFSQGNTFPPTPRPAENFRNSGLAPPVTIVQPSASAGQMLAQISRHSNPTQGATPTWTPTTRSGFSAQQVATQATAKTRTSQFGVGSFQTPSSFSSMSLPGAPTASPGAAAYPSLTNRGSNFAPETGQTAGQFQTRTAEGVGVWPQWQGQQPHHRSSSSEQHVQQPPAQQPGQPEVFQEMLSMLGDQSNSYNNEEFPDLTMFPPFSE
Experimental: Figure 6 MICTs induce a formation of the AhR-ARNT heterodimer. Intestinal LS180 cells were incubated with TCDD, tested MICT, and vehicle (DMSO; 0.1% V/V) for 90 min. Protein co-immunoprecipitation of ARNT was carried out, as described in the Methods section. The representative immunoblots of immuno-precipitated protein eluates and total cell lysates are shown. The experiments were performed in two consecutive cell passages.
as §2

[4] = LS180, 90 min, exp 1, TCDD 10 nM, Indole 1 mM, IAC 100 µM, others 200 µM
[5] = LS180, 90 min, exp 2, TCDD 10 nM, Indole 1 mM, IAC 100 µM, others 200 µM
[6] = LS180, 90 min, exp 3, TCDD 10 nM, Indole 1 mM, IAC 100 µM, others 200 µM
[7] = mean ± SD, n = 3, relative to TCDD-treated cells, LS180, 90 min
[8] = relative to TCDD-treated cells, LS180, 90 min, exp 1, same concentrations
[9] = relative to TCDD-treated cells, LS180, 90 min, exp 2, same concentrations
[10] = relative to TCDD-treated cells, LS180, 90 min, exp 3, same concentrations

| Structure (SMILES) | AhR Cell Functions (Translocation); Heterodimerization; DNA-Binding [1] | % positive AhR nuclei [2, 4] | % positive AhR nuclei [2, 5] | % positive AhR nuclei [2, 6] | Ø AhR positive nuclei [2, 7] | % relative AhR nuclei [2, 8] | % relative AhR nuclei [2, 9] | % relative AhR nuclei [2, 10] | formation of AhR-ARNT heterodimer [3] | % positive AhR nuclei [2] | % relative AhR nuclei [2] | Ø AhR positive nuclei [2] |
| --- | --- | --- | --- | --- | --- | --- | --- | --- | --- | --- | --- | --- |
| Cc1c[nH]c2ccccc12 [3MI, skatole] | highly active–all parameters | 65% | 72% | 62% | 105 ± 13.8% | 120% | 94% | 102% | induce a formation of AhR-ARNT heterodimer | – | – | – |
| O=C(O)/C=C/c1c[nH]c2ccccc12 [IAC, indole-3-acrylate] | highly active–all parameters | 51% | 61% | 73% | 98 ± 20.4% | 94% | 79% | 120% | induce a formation of AhR-ARNT heterodimer | – | – | – |
| NC(=O)Cc1c[nH]c2ccccc12 [IAD, indole-3-acetamide] | highly active–all parameters | 46% | 73% | 42% | 83 ± 13.1% | 85% | 95% | 69% | induce a formation of AhR-ARNT heterodimer | – | – | – |
| c1ccc2[nH]ccc2c1 [IND, indole] | highly active–all parameters | – | – | – | – | – | – | – | induce a formation of AhR-ARNT heterodimer | 61% and 73% and 65% | 113% and 95% and 107% | 105 ± 9.2% |
| O=C(O)C(=O)Cc1c[nH]c2ccccc12 [IPY, indole-3-pyruvate] | highly active–all parameters | 42% | 60% | 38% | 73 ± 9.0% | 78% | 78% | 62% | induce a formation of AhR-ARNT heterodimer | – | – | – |
| NCCc1c[nH]c2ccccc12 [TA, tryptamine] | highly active–all parameters | 44% | 65% | 66% | 91 ± 14.6% | 81% | 84% | 108% | induce a formation of AhR-ARNT heterodimer | – | – | – |
| Clc1cc2c(cc1Cl)Oc1cc(Cl)c(Cl)cc1O2 [TCDD, 2,3,7,8-tetrachlorodibenzo-p-dioxin, reference compound] | – | 54% | 77% | 61% | – | – | – | – | – | – | – | – |
